Source: the PolyMetriX glass transition set

Structure (SMILES)	glass transition temperature
*C(=O)c1ccc2c(c1)C(=O)N(c1cccc(C(=O)c3cccc(N4C(=O)c5ccc(*)cc5C4=O)c3)c1)C2=O (repeat unit)	242.00 °C
*C(=O)c1ccc2c(c1)C(=O)N(c1cccc(C(O[Si](C)(C)O[Si](C)(C)O[Si](C)(C)C)c3cccc(N4C(=O)c5ccc(*)cc5C4=O)c3)c1)C2=O (repeat unit)	235.00 °C
*CCCCCCCCCCc1nc2ccc(-c3ccc4nc(*)oc4c3)cc2o1 (repeat unit)	64.00 °C
*CCCCCCCCCc1nc2ccc(-c3ccc4nc(*)oc4c3)cc2o1 (repeat unit)	64.00 °C
*CCCCCCCCc1nc2ccc(-c3ccc4nc(*)oc4c3)cc2o1 (repeat unit)	223.50 °C
*CCCCCCCCc1nc2ccc(-c3ccc4nc(*)sc4c3)cc2s1 (repeat unit)	238.00 °C
*CCCCCCCc1nc2ccc(-c3ccc4nc(*)oc4c3)cc2o1 (repeat unit)	85.00 °C
*c1ccc(-c2ccc(-c3c(-c4ccccc4)nc4ccc(-c5ccc6nc(-c7ccccc7)c(*)c(-c7ccccc7)c6c5)cc4c3-c3ccccc3)cc2)cc1 (repeat unit)	405.00 °C
*c1ccc(-c2nc3cc(S(=O)(=O)c4ccc5nc(*)c(-c6ccccc6)nc5c4)ccc3nc2-c2ccccc2)cc1 (repeat unit)	277.50 °C
*c1ccc(-c2nnc(-c3cccc(-c4nnc(*)o4)c3)o2)cc1 (repeat unit)	278.00 °C
*c1ccc(-n2ccc(-c3cccc(-c4ccn(*)n4)c3)n2)cc1 (repeat unit)	75.00 °C
*c1ccc(C2(c3ccc(-c4cc(-c5ccccc5)c5cc(C6(c7ccc8nc(*)cc(-c9ccccc9)c8c7)c7ccccc7C(=O)c7ccccc76)ccc5n4)cc3)c3ccccc3-c3ccccc32)cc1 (repeat unit)	405.00 °C
*c1ccc(Cc2ccc(-c3nc(-c4cccc(-c5nnc(-c6ccccc6)c(*)n5)n4)nnc3-c3ccccc3)cc2)cc1 (repeat unit)	205.00 °C
*c1ccc(OCCCCOc2ccc(-c3nc4ccc(-c5ccc6nc(*)c(-c7ccccc7)nc6c5)cc4nc3-c3ccccc3)cc2)cc1 (repeat unit)	240.00 °C
*c1ccc(Oc2ccc(-c3cc(-c4cccc(-c5cc(*)c6ccccc6n5)c4)nc4ccccc34)cc2)cc1 (repeat unit)	268.00 °C
*c1ccc(Oc2ccc(-c3cc(-c4ccccc4)c4cc(C5(c6ccc7nc(*)cc(-c8ccccc8)c7c6)c6ccccc6C(=O)c6ccccc65)ccc4n3)cc2)cc1 (repeat unit)	320.00 °C
*c1ccc(Oc2ccc(-c3nc4cc(S(=O)(=O)c5ccc6nc(-c7ccccc7)c(*)nc6c5)ccc4nc3-c3ccccc3)cc2)cc1 (repeat unit)	290.00 °C
*c1ccc2c(c1)Sc1cc(-c3ccc(-c4ccc(*)s4)s3)ccc1N2CCCCCC (repeat unit)	140.00 °C
*c1ccc2c3ccc(-c4ccc(-c5ccc(-c6ccc(*)s6)c6nccnc56)s4)cc3n(C(CCCCCCCC)CCCCCCCC)c2c1 (repeat unit)	116.00 °C
*c1ccc2nc(*)cc(-c3ccccc3)c2c1 (repeat unit)	415.00 °C

Structure (SMILES)	glass transition temperature
*c1ccc2oc(-c3ccc(-c4nc5cc(C(*)(C(F)(F)F)C(F)(F)F)ccc5o4)cc3)nc2c1 (repeat unit)	371.50 °C
*c1ccc2oc(-c3cccc(-c4nc5cc(C(*)(C(F)(F)F)C(F)(F)F)ccc5o4)n3)nc2c1 (repeat unit)	329.00 °C
*c1ccc2oc(-c3cccc(-c4nc5cc(C(*)(c6ccccc6)C(F)(F)F)ccc5o4)c3)nc2c1 (repeat unit)	301.00 °C
*c1cccc(-c2nc3cc(-c4ccc5c(c4)nc(*)n5C)ccc3[nH]2)c1 (repeat unit)	346.66 °C
*c1cccc(-c2nc3cc(-c4ccc5nc(*)c(-c6ccc7ccccc7c6)nc5c4)ccc3nc2-c2ccc3ccccc3c2)c1 (repeat unit)	317.00 °C
*c1cccc(-c2nc3cc4nc(-c5ccccc5)c(*)nc4cc3nc2-c2ccccc2)c1 (repeat unit)	365.00 °C
*c1cccc(-c2nc3ccc(-c4ccc5nc(*)[nH]c5c4)cc3[nH]2)c1 (repeat unit)	420.00 °C
*c1cccc(C(=O)c2ccc(Oc3ccc(N4C(=O)c5ccc(Oc6ccc7c(c6)C(=O)N(*)C7=O)cc5C4=O)cc3C(F)(F)F)cc2)c1 (repeat unit)	224.00 °C
*c1cccc(C(F)(F)C(F)(F)C(*)(F)F)c1 (repeat unit)	29.00 °C
*c1cccc(C(O[Si](C)(C)O[Si](C)(C)O[Si](C)(C)C)c2cccc(N3C(=O)c4ccc(Oc5ccc6c(c5)C(=O)N(*)C6=O)cc4C3=O)c2)c1 (repeat unit)	219.00 °C
*c1cccc(Cc2cccc(-n3c(=O)c4cc5c(=O)n(*)c(=O)c5cc4c3=O)c2)c1 (repeat unit)	327.50 °C
*c1cccc(Oc2ccc(-c3ccc(Oc4cccc(-n5c(=O)c6cc7c(=O)n(*)c(=O)c7cc6c5=O)c4)cc3)cc2)c1 (repeat unit)	251.00 °C
*c1cccc(Oc2ccc(P(=O)(c3ccccc3)c3ccccc3)c(Oc3cccc(-n4c(=O)c5cc6c(=O)n(*)c(=O)c6cc5c4=O)c3)c2)c1 (repeat unit)	251.00 °C
*c1cccc(Oc2cccc(Oc3cccc(N4C(=O)c5c(c(-c6ccccc6)c(-c6ccc(-c7c(-c8ccccc8)c8c(c(-c9ccccc9)c7-c7ccccc7)C(=O)N(*)C8=O)cc6)c(-c6ccccc6)c5-c5ccccc5)C4=O)c3)c2)c1 (repeat unit)	280.00 °C
*c1cccc(P(=O)(c2ccc(C(F)(F)F)cc2)c2cccc(-n3c(=O)c4c(-c5ccccc5)c5c(=O)n(*)c(=O)c5c(-c5ccccc5)c4c3=O)c2)c1 (repeat unit)	337.00 °C
*c1cccc(P(=O)(c2ccc(C(F)(F)F)cc2)c2cccc(-n3c(=O)c4cc5c(=O)n(*)c(=O)c5c(-c5cc(C(F)(F)F)cc(C(F)(F)F)c5)c4c3=O)c2)c1 (repeat unit)	290.00 °C
*c1cccc(P(=O)(c2ccc(C(F)(F)F)cc2)c2cccc(-n3c(=O)c4cc5c(=O)n(*)c(=O)c5cc4c3=O)c2)c1 (repeat unit)	311.00 °C
*c1cccc(P(=O)(c2cccc(-n3c(=O)c4c(-c5cc(C(F)(F)F)cc(C(F)(F)F)c5)c5c(=O)n(*)c(=O)c5c(-c5cc(C(F)(F)F)cc(C(F)(F)F)c5)c4c3=O)c2)c2cc(C(F)(F)F)cc(C(F)(F)F)c2)c1 (repeat unit)	293.00 °C
*c1cccc(P(=O)(c2cccc(-n3c(=O)c4c(-c5ccc(C(F)(F)F)cc5)c5c(=O)n(*)c(=O)c5c(-c5ccc(C(F)(F)F)cc5)c4c3=O)c2)c2cc(C(F)(F)F)cc(C(F)(F)F)c2)c1 (repeat unit)	310.00 °C
*c1cccc(P(C)(=O)c2cccc(N3C(=O)c4ccc(NC(=O)OCCOc5ccc(C(c6ccc(OCCOC(=O)Nc7ccc8c(c7)C(=O)N(*)C8=O)cc6)(C(F)(F)F)C(F)(F)F)cc5)cc4C3=O)c2)c1 (repeat unit)	204.00 °C
